≈ marks a conversion by molar mass, not a printed value. Entries after “also recorded” stand apart in the source; their conditions may differ. Like-named read-outs stand apart in the source and are kept apart here.
Tests used:
rLipGMTB = assay: Inhibition of rLipGMTB, enzyme-inhibitor pre-incubation method, residual activity on pNP-C6; type: biochemical; details: for xI50: inhibitor molar excess leading to 50% enzyme inhibition; for xI50 / % inhibition xI = 4 / % inhibition xI = 100: 30-min incubation at 25°C, substrate pNP-C6; for % inhibition xI = 4: inhibitor molar excess xI = 4; for % inhibition xI = 100: inhibitor molar excess xI = 100; for Inhibitory effect on rLipGMTB (in words): pure rLipGMTB, molar excess up to xI = 100
[1] = system: intramacrophagic M. tuberculosis; set-up: method as in PMID 28924204, PMID 30292819; details: infected macrophages; ref [28],[42]; cited from earlier work
[2] = system: extracellular M. tuberculosis; details: cited from earlier work; for Activity against extracellular M. tuberculosis (in words): growth in vitro, ref [28],[42]; for Activity against extracellularly growing M. tuberculosis (in words): ref [27],[28]
M. smegmatis lipGMS::Hyg = assay: microbe, parasite or virus in culture; type: cell-based; details: for MIC50: Mycolicibacterium smegmatis
[3] = system: M. smegmatis lipGMS::Hyg Comp; assay: microbe, parasite or virus in culture; type: cell-based; details: for MIC50: Mycolicibacterium smegmatis; for Fold change compared with WT: MIC50 of lipGMS::Hyg Comp strain versus WT
[4] = system: M. smegmatis lipGMS::Hyg CompMTB; assay: microbe, parasite or virus in culture; type: cell-based; details: for Fold change compared with WT: MIC50 of lipGMS::Hyg CompMTB strain versus WT; for MIC50: Mycolicibacterium smegmatis
M. smegmatis WT = assay: REMA susceptibility testing, WT strain
Protocol: Susceptibility testing was performed using the Middlebrook 7H9 broth microdilution method. All assays for each strain were carried out at least in triplicate. MICs against the various M. smegmatis bacterial strains were determined in 96-well flat-bottom Nunclon Delta Surface microplates with lid (Thermo Fisher Scientific) using REMA method [59]. Briefly, log-phase bacteria were diluted to a cell density of 5 × 10^6 cells/ml in 7H9-S medium. […] Growth controls containing no inhibitor (i.e., bacteria only), inhibition controls containing 50 μg/ml kanamycin and sterility controls (i.e. medium only) without inoculation were also included. Plates were incubated at 37°C in a humidity chamber [60] to prevent evaporation for 3–5 days. Then, 20 µl of a 0.02% (w/v) resazurin solution was added to each well, and the plates were incubated at 37°C for color change from blue to pink or violet and for a reading of fluorescence units (FU). Fluorescence corresponding to the resazurin reduction to its metabolite resorufin was quantitated using a Tecan Spark 10M multimode microplate reader (Tecan Group Ltd, France) with excitation at 530 nm and emission at 590 nm. Fluorometric MICs were determined by fitting the RFU% sigmoidal dose–response curves [28, 29] in Kaleidagraph 4.2 software (Synergy Software). MIC values determined as the lowest compound concentrations inhibiting 50% of growth were defined as the MIC50.

[5] = Mycolicibacterium smegmatis, WT strain, REMA, concentration leading to 50% growth inhibition
[6] = WT strain, REMA, concentration leading to 50% growth inhibition

| Compound | xI50 (rLipGMTB) | % inhibition xI = 4 (rLipGMTB) [%] | % inhibition xI = 100 (rLipGMTB) [%] | Inhibitory effect on rLipGMTB (in words) (rLipGMTB) | Activity against intramacrophagic M. tuberculosis (in words) [1] | Activity against extracellular M. tuberculosis (in words) [2] | MIC50 (M. smegmatis lipGMS::Hyg) [mg/L] | MIC50 ([3]; lipGMS::Hyg Comp strain, REMA, concentration leading to 50% growth inhibition, read-out: MIC50) [mg/L] | Fold change compared with WT [4] | MIC50 ([4]; lipGMS::Hyg CompMTB strain, REMA, concentration leading to 50% growth inhibition, read-out: MIC50) [mg/L] | Activity against extracellularly growing M. tuberculosis (in words) [2] | MIC50 (M. smegmatis WT; Mycolicibacterium smegmatis) [mg/L] | Fold change compared with WT (M. smegmatis lipGMS::Hyg; MIC50 of lipGMS::Hyg strain versus WT) [×] | Fold change compared with WT [3] | MIC50 [3] [mg/L] | MIC50 (M. smegmatis WT; [5]) [mg/L] | MIC50 [4] [mg/L] | MIC50 (M. smegmatis WT; [6]) [mg/L] |
| --- | --- | --- | --- | --- | --- | --- | --- | --- | --- | --- | --- | --- | --- | --- | --- | --- | --- | --- |
| CCCCCCCCCCC1CCP(=O)(OC)OC(C)=C1C(=O)OC (stereo not drawn) [CyC7α] | 5.0 | 47.4 ± 0.81 | 81.4 ± 1.6 | strong dose-dependent inhibition | active on infected macrophages only |  |  |  |  |  |  |  |  |  |  |  |  |  |
| CCCCCCCCCCC1CCP(=O)(OC)OC(C)=C1C(=O)OC (stereo not drawn) [CyC7β] | 48.1 | 7.9 ± 0.72 | 57.6 ± 2.0 | very weak inhibitory effects | strong activity | strong activity |  |  |  |  |  |  |  |  |  |  |  |  |
| CCCCCCCCCCCCC1CCP(=O)(OC)OC(C)=C1C(=O)OC (stereo not drawn) [CyC8β] | >200 | 3.2 ± 0.16 | 32.0 ± 1.5 | very weak inhibitory effects | active on infected macrophages only |  |  |  |  |  |  |  |  |  |  |  |  |  |
| CCCCCCCCCCCCCCCCOP1(=O)OCCC(C(=O)OC)=C(C)O1 (stereo not shown) [CyC17] | 0.98 | 66.4 ± 4.5 | 95.4 ± 2.6 | strong dose-dependent inhibition; also recorded: strong inhibitory effect | no activity | efficiently block M. tuberculosis growth in vitro | 9.6 (≈ 21.5 µM) | 0.6 (≈ 1.34 µM) | ×1.1 | 0.65 (≈ 1.46 µM) | only active against extracellularly growing M. tuberculosis strain | 0.56 (≈ 1.25 µM) |  |  |  |  |  |  |
| CCCCCCOc1nn(-c2ccccc2)c(=O)o1 [HPOX] | 2.9 | 58.5 ± 1.4 | 93.8 ± 5.7 | strong inhibitory effect | no activity | efficiently block M. tuberculosis growth in vitro | 18.4 (≈ 70.1 µM) |  |  |  | only active against extracellularly growing M. tuberculosis strain |  | 2.2 | ~1.5 × | 12.2 (≈ 46.5 µM) | 8.4 (≈ 32 µM) |  |  |
| CCCCCCOc1nn(-c2ccc(Oc3ccccc3)cc2)c(=O)o1 [HpPPOX] | 3.5 | 61.8 ± 4.7 | 73.8 ± 1.0 |  | active on infected macrophages only |  |  |  |  |  |  |  |  |  |  |  |  |  |
| NNC(=O)c1ccncc1 [INH, isoniazid] |  |  |  |  |  |  | 2.9 (≈ 21.1 µM) |  | ×1.3 |  |  |  |  | ×1.2 | 1.8 (≈ 13.1 µM) | 0.76 (≈ 5.54 µM) | 1.9 (≈ 13.9 µM) | 1.4 (≈ 10.2 µM) |
| COc1nn(-c2cccc(Oc3ccccc3)c2)c(=O)o1 [MmPPOX] | 3.1 | 54.1 ± 1.5 | 82.0 ± 3.8 |  |  |  |  |  |  |  |  |  |  |  |  |  |  |  |
| CCCCCCCCCCC[C@@H](C[C@@H]1OC(=O)[C@H]1CCCCCC)OC(=O)[C@H](CC(C)C)NC=O [Orlistat, reference compound] | 15.2 | 10.8 ± 0.17 | 69.5 ± 5.3 | moderate inhibitory activity |  |  | 6.5 (≈ 13.1 µM) |  | ×1.6 |  |  |  |  | ×1.3 | 1.2 (≈ 2.42 µM) | 0.97 (≈ 1.96 µM) | 1.6 (≈ 3.23 µM) |  |
| CO[C@H]1/C=C/O[C@@]2(C)Oc3c(C)c(O)c4c(O)c(c(/C=N/N5CCN(C)CC5)c(O)c4c3C2=O)NC(=O)/C(C)=C\C=C\[C@H](C)[C@H](O)[C@@H](C)[C@@H](O)[C@@H](C)[C@H](OC(C)=O)[C@@H]1C [RIF, rifampicin] |  |  |  |  |  |  | 3.3 (≈ 4.01 µM) |  | ×1.3 |  |  |  |  | ×1.2 | 0.89 (≈ 1.08 µM) | 1.4 (≈ 1.7 µM) | 0.96 (≈ 1.17 µM) | 0.76 (≈ 0.924 µM) |
| CC(C)COc1nn(-c2ccc(Oc3ccccc3)cc2)c(=O)o1 [iBpPPOX] | 14.7 | 40.5 ± 3.1 | 60.6 ± 0.22 |  | strong activity | strong activity |  |  |  |  |  |  |  |  |  |  |  |  |
